# Measurements as given in patent US5550128A, “Enantiomers of gamma methylene 10-deaza aminopterin and process for preparing the same” (priority 1994, dated 1996).
# Experiments:
# [1] = tested on: human tumor cell lines in culture; experiment: Human Tumor Disease Oriented in vitro screen, panel as a whole; type: cell-based; conditions: relative to methotrexate, or enantiomer comparison
# Experimental: (§1) Further, by analogy to methotrexate (rheumatrex) L-MDAM should be useful in the treatment of autoimmune diseases such as rheumatoid arthritis and inflammatory diseases such as asthma.
# (§2) A 48 h continuous drug exposure protocol was used combined with an SR13
# (§3) protein assay to estimate cell growth or viability.
# [2] = tested on: adriamycin resistant MCF-7 human breast cancer cells (MCF-7/ADR-RBS); experiment: Human Disease Oriented in vitro Antitumor Screen, adriamycin resistant cells; type: cell-based; conditions: MCF7, read-out: Gl50 (the source's name)
# Source text: (§4) It is also active against the adriamycin resistant MCF-7 human breast cancer cells (Gl50 -=74×10^-9).
# (§5) Human Disease Oriented in vitro Antitumor Screen
# [3] = tested on: U-251 (CNS cancer); experiment: Human Disease Oriented in vitro Antitumor Screen; type: cell-based; conditions: U-251 (Table 5), read-out: Gl50 (the source's name)
# Source text: as §4, §5
# [4] = tested on: HCT-15 (colon cancer); experiment: Human Disease Oriented in vitro Antitumor Screen; type: cell-based; conditions: HCT-15 (Table 5), read-out: Gl50 (the source's name)
# Source text: as §4, §5
# [5] = tested on: ZIACC-62 (melanoma); experiment: Human Disease Oriented in vitro Antitumor Screen; type: cell-based; conditions: ZIACC-62 (Table 5), read-out: Gl50 (the source's name)
# Source text: as §4, §5
# [6] = tested on: IGROVI (ovarian cancer); experiment: Human Disease Oriented in vitro Antitumor Screen; type: cell-based; conditions: IGROVI (Table 5), read-out: Gl50 (the source's name)
# Source text: as §4, §5
# [7] = tested on: DU 145 (prostate cancer); experiment: Human Disease Oriented in vitro Antitumor Screen; type: cell-based; conditions: DU 145 (Table 5), read-out: Gl50 (the source's name)
# Source text: as §4, §5
# [8] = tested on: MDA-N (breast cancer); experiment: Human Disease Oriented in vitro Antitumor Screen; type: cell-based; conditions: MDA-N (Table 5), read-out: Gl50 (the source's name)
# Source text: as §4, §5
# [9] = tested on: OVCAR-5 (ovarian cancer); experiment: Human Disease Oriented in vitro Antitumor Screen; type: cell-based; conditions: OVCAR-5 (Table 5), read-out: Gl50 (the source's name)
# Source text: as §4, §5
# [10] = tested on: NCI-H460 (non-small cell lung cancer); experiment: Human Disease Oriented in vitro Antitumor Screen; type: cell-based; conditions: NCI-H460 (Table 5), read-out: Gl50 (the source's name)
# Source text: as §4, §5
# [11] = tested on: HOP-62 (non-small cell lung cancer); experiment: Human Disease Oriented in vitro Antitumor Screen; type: cell-based; conditions: HOP-62 (Table 5), read-out: Gl50 (the source's name)
# Source text: as §4, §5
# [12] = tested on: MCF-7 (breast cancer); experiment: Human Disease Oriented in vitro Antitumor Screen; type: cell-based; conditions: MCF7, MCF-7 (Table 5), read-out: Gl50 (the source's name)
# Source text: as §4, §5
# [13] = tested on: M14 (melanoma); experiment: Human Disease Oriented in vitro Antitumor Screen; type: cell-based; conditions: M14 (Table 5), read-out: Gl50 (the source's name)
# Source text: as §4, §5
# [14] = tested on: RPMI-8226 (leukemia); experiment: Human Disease Oriented in vitro Antitumor Screen; type: cell-based; conditions: RPMI-8226 (Table 5), read-out: Gl50 (the source's name)
# Source text: as §4, §5
# [15] = tested on: SN-12C (renal cancer); experiment: Human Disease Oriented in vitro Antitumor Screen; type: cell-based; conditions: SN12C, SN-12C (Table 5), read-out: Gl50 (the source's name)
# Source text: as §4, §5
# [16] = tested on: MDA-MB-231/ATCC (breast cancer); experiment: Human Disease Oriented in vitro Antitumor Screen; type: cell-based; conditions: MDA-MB-231/ATCC (Table 5), read-out: Gl50 (the source's name)
# Source text: as §4, §5
# [17] = tested on: TK-10 (renal cancer); experiment: Human Disease Oriented in vitro Antitumor Screen; type: cell-based; conditions: TK-10 (Table 5), read-out: Gl50 (the source's name)
# Source text: as §4, §5
# [18] = tested on: CCRF-CEM (leukemia); experiment: Human Disease Oriented in vitro Antitumor Screen; type: cell-based; conditions: CCRF-CEM (Table 5), read-out: Gl50 (the source's name)
# Experimental: as §1, §2, §3
# [19] = tested on: SR (leukemia); experiment: Human Disease Oriented in vitro Antitumor Screen; type: cell-based; conditions: SR (Table 5), read-out: Gl50 (the source's name)
# Experimental: as §1, §2, §3
# [20] = tested on: HCT-116 (colon cancer); experiment: Human Disease Oriented in vitro Antitumor Screen; type: cell-based; conditions: HCT-116 (Table 5), read-out: Gl50 (the source's name)
# Experimental: as §1, §2, §3
# [21] = tested on: HT-29 (colon cancer); experiment: Human Disease Oriented in vitro Antitumor Screen; type: cell-based; conditions: HT-29 (Table 5), read-out: Gl50 (the source's name)
# Experimental: as §1, §2, §3
# [22] = tested on: ACHN (renal cancer); experiment: Human Disease Oriented in vitro Antitumor Screen; type: cell-based; conditions: ACHN (Table 5), read-out: Gl50 (the source's name)
# Experimental: as §1, §2, §3
# [23] = tested on: HL-60 (TB) (leukemia); experiment: Human Disease Oriented in vitro Antitumor Screen; type: cell-based; conditions: HL-60 TB (Table 5), read-out: Gl50 (the source's name)
# Experimental: as §1, §2, §3
# [24] = tested on: SW-620 (colon cancer); experiment: Human Disease Oriented in vitro Antitumor Screen; type: cell-based; conditions: SW-620 (Table 5), read-out: Gl50 (the source's name)
# Experimental: as §1, §2, §3
# [25] = tested on: SF-539; experiment: Human Disease Oriented in vitro Antitumor Screen; type: cell-based; conditions: SF-539 (Table 5), read-out: Gl50 (the source's name)
# Experimental: as §1, §2, §3
# [26] = tested on: SF-268; experiment: Human Disease Oriented in vitro Antitumor Screen; type: cell-based; conditions: SF-268 (Table 5), read-out: Gl50 (the source's name)
# Experimental: as §1, §2, §3
# [27] = tested on: 786-O (renal cancer); experiment: Human Disease Oriented in vitro Antitumor Screen; type: cell-based; conditions: 786-0, 786-O (Table 5), read-out: Gl50 (the source's name)
# Experimental: as §1, §2, §3
# [28] = tested on: LOX IM VI (melanoma); experiment: Human Disease Oriented in vitro Antitumor Screen; type: cell-based; conditions: LOX IMVI, LOX MI VI (Table 5), read-out: Gl50 (the source's name)
# Experimental: as §1, §2, §3
# [29] = tested on: SF-295; experiment: Human Disease Oriented in vitro Antitumor Screen; type: cell-based; conditions: SF-295 (Table 5), read-out: Gl50 (the source's name)
# Experimental: as §1, §2, §3
# [30] = tested on: MOLT-4 (leukemia); experiment: Human Disease Oriented in vitro Antitumor Screen; type: cell-based; conditions: MOLT-4 (Table 5), read-out: Gl50 (the source's name)
# Experimental: as §1, §2, §3
# [31] = tested on: OVCAR-8 (ovarian cancer); experiment: Human Disease Oriented in vitro Antitumor Screen; type: cell-based; conditions: OVCAR-8 (Table 5), read-out: Gl50 (the source's name)
# Experimental: as §1, §2, §3
# [32] = target: T1, Recombinant Human Dihydrofolate Reductase (Homo sapiens, UniProt P00374); experiment: Inhibition of recombinant human dihydrofolate reductase, spectrophotometric enzyme assay; type: biochemical
# T1 sequence (P00374 1-187): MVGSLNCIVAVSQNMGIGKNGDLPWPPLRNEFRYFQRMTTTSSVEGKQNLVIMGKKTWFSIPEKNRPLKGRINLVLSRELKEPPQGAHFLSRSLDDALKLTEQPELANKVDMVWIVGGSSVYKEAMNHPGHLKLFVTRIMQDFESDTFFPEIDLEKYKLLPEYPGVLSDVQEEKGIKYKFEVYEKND
# Experimental: Enzyme assay was performed spectrophotometrically in a solution containin
# 50 μM dihydrofolate, 80 μM NADPH, 0.05 M Tris HCl. 0.01 M
# 2mercaptoethanol and 0.001 M EDTA at pH 7.4 at 30°. The reaction
# Pure human recombinant enzyme was used.
# [33] = tested on: H35 hepatoma cells; experiment: Growth inhibition of H35 hepatoma cells in culture; type: cell-based
# Experimental: (§6) Independent, further evidences to the identity of L-MDAM as the biologically active enantiomer of the racemic mixture of D,L-MDAM (previously described as MDAM; Ref, U.S. Pat. No. 4,996,207) was obtained by the following data. […] The cytotoxicity of L-MDAM versus D,L-MDAM was also compared. […] The l50 value for growth inhibition (Gl50) was 39 nM for D,L-MDAM. […] Taken together, these unexpected and novel results establish that the biologically active compound present in the racemic mixture of MDAM is the L-enantiomer described in claim number 1.
# [34] = tested on: transport of radiolabeled folinic acid to H35 hepatoma cells; experiment: Inhibition of transport of radiolabeled folinic acid to H35 hepatoma cells; type: cell-based
# Experimental: as §6
# [35] = tested on: L1210 leukemia; conditions: animals bearing L1210 leukemia; cited from earlier work
# [36] = tested on: P388 leukemia; conditions: animals bearing P388 leukemia; cited from earlier work
# [37] = animals; relative to MTX; cited from earlier work
structure (smiles),measurement,setting,value
"C=C(C[C@H](NC(=O)c1ccc(CCc2cnc3nc(N)nc(N)c3n2)cc1)C(=O)O)C(=O)O [L-MDAM, 4-amino-4-deoxy-10-deazapteroyl-γ-methylene-L-glutamic acid]",activity/potency in inhibiting growth of human tumor cell lines (in words),[1],"biologically active enantiomer of D,L-MDAM"
same,IC50,[2],74 nM
same,IC50,[3],< 10 nM
same,IC50,[4],< 10 nM
same,IC50,[5],< 10 nM
same,IC50,[6],< 10 nM
same,IC50,[7],< 10 nM
same,IC50,[8],< 10 nM
same,IC50,[9],< 10 nM
same,IC50,[10],< 10 nM
same,IC50,[11],< 10 nM
same,IC50,[12],< 10 nM
same,IC50,[13],< 10 nM
same,IC50,[14],< 10 nM
same,IC50,[15],< 10 nM
same,IC50,[16],< 10 nM
same,IC50,[17],< 10 nM
same,IC50,[18],< 10 nM
same,IC50,[19],< 10 nM
same,IC50,[20],< 10 nM
same,IC50,[21],< 10 nM
same,IC50,[22],< 10 nM
same,IC50,[23],< 10 nM
same,IC50,[24],< 10 nM
same,IC50,[25],< 10 nM
same,IC50,[26],< 10 nM
same,IC50,[27],< 10 nM
same,IC50,[28],< 10 nM
same,IC50,[29],< 10 nM
same,IC50,[30],< 10 nM
same,IC50,[31],< 10 nM
same,IC50,"[32]; 50 μM dihydrofolate, 80 μM NADPH, pH 7.4, 30°",22 nM
same,IC50 Compound/IC50 MTX,[32]; ratio to MTX,1.29
same,DHFR inhibitory activity (comparison in words),"[32]; relative to MTX or D,L-MDAM","exactly twice as active as D,L-MDAM"
same,"cytotoxicity versus D,L-MDAM",[33]; H35 hepatoma cells,Dramatic and unexpected potentiation of activity
same,IC50,"[33]; H35 hepatoma cells in culture, identical conditions, read-out: l50 value for growth inhibition (Gl50)",8 nM
same,IC50,"[34]; H35 hepatoma cells, read-out: l50 value, inhibition of transport of radiolabeled folinic acid",2300 nM
same,"reduction in l50 value (transport) versus D,L-MDAM","[34]; L-MDAM versus D,L-MDAM",approximately one-half
"C=C(CC(NC(=O)c1ccc(C(CC)Cc2cnc3nc(N)nc(N)c3n2)cc1)C(=O)O)C(=O)O (centres unmarked) [MEDAM, γ-methylene-10-ethyl-10-deazaaminopterin]",in vivo antitumor activity relative to MTX,[35],superior in vivo antitumor activity relative to the polyglutamylatable MTX
same,in vivo antitumor activity relative to MTX,[36],superior in vivo antitumor activity relative to the polyglutamylatable MTX
same,tolerability,[37],tolerated by animals at higher doses
